Source: patent US8338486B2, “Methods for the treatment of CNS-related conditions” (Adamas Pharmaceuticals, Inc., priority 2004, dated 2012)

Experiments:
[1] = cited from earlier work; for Tmax / Human PK T½: humans
[2] = humans; cited from earlier work
[3] = Release profile (cumulative fraction released; USP II Paddle system, water); type: physicochemical; details: memantine-galantamine combination
Source text: The cumulative fraction is the amount of drug substance released from the formulation matrix to the serum or gut environment (e.g., U.S. Pat. No. 4,839,177) or as measured with a USP II Paddle system using water as the dissolution medium.

For `CCN(C)C(=O)Oc1cccc([C@H](C)N(C)C)c1` [EXELON ®/Rivastigmine], the “Tmax” value [1] is given as 1 to 2.5 h and the “Main Dose-Dependent Adverse Event” value [2] is given as “Nausea, vomiting”.
In the case of `C/C=C1\[C@H]2C=C(C)C[C@]1(N)c1ccc(=O)[nH]c1C2` [HUPERZINE-A], the “Human PK T½” value [1] is given as 4.8 h and the “Tmax” value [1] is given as 1.3 h.
`CC12CC3CC(C)(C1)CC(N)(C3)C2` [Memantine, 1-amino-3,5-dimethyladamantane] gave a cum. fraction ([3]; Time 1) of 0.2, a cum. fraction ([3]; Time 2) of 0.3 and a cum. fraction ([3]; Time 4) of 0.4. For the same molecule, the cum. fraction ([3]; Time 8) was 0.5, the cum. fraction ([3]; Time 12) was 0.6 and the cum. fraction ([3]; Time 16) was 0.7. It also gave a cum. fraction ([3]; Time 20) of 0.8 and a cum. fraction ([3]; Time 24) of 0.9.
For `COc1ccc2c3c1O[C@H]1C[C@@H](O)C=C[C@@]31CCN(C)C2` [REMINYL ®/Galantamine], the T½ ([1]; head of Table 4) is listed as “T½ = 7 hrs”, the “Human PK T½” value [1] is listed as 7 h and the “Tmax” value [1] is listed as 1 to 2.5 h. For the same molecule, the cum. fraction ([3]; Time 1) was 0.2, the cum. fraction ([3]; Time 2) was 0.3 and the cum. fraction ([3]; Time 4) was 0.4. The cum. fraction ([3]; Time 8) was 0.5, the cum. fraction ([3]; Time 12) was 0.6 and the cum. fraction ([3]; Time 16) was 0.7. It also gave a cum. fraction ([3]; Time 20) of 0.8 and a cum. fraction ([3]; Time 24) of 1.0.
In the case of `CC(N)C12CC3CC(CC(C3)C1)C2` (stereo not drawn) [Rimantadine, 1-(1-aminoethyl)adamantane], the “Dose Dependent Tox” value [2] is listed as “Insomnia”.
